system: C57BL/6J mice; experiment: Glucokinase activator in vivo screen protocol (blood glucose after oral dosing); details: administered orally, 50 mg/kg, C57BL/6J mice fasted two hours; active = significant (p<0.05) decrease in blood glucose vs vehicle for two consecutive time points
Method: Glucokinase Activator in vivo Screen Protocol
C57BL/6J mice are orally dosed via gavage with Glucokinase (GK) activator at 50 mg/kg body weight following a two hour fasting period. Blood glucose determinations are made five times during the six hour post-dose study period.
Mice (n=6) are weighed and fasted for a two hour period prior to oral treatment. GK activators are formulated at 6.76 mg/ml in Gelucire vehicle (Ethanol:Gelucire44/14:PEG400q.s. 4:66:30 v/w/v. Mice are dosed orally with 7.5 μL formulation per gram of body weight to equal a 50 mg/kg dose. Immediately prior to dosing, a pre dose (time zero) blood glucose reading is acquired by snipping off a small portion of the animals tail (−1 mm) and collecting 15 μL blood into a heparinized capillary tube for analysis. Following GK activator administration, additional blood glucose readings are taken at 1, 2, 4, and 6 hours post dose from the same tail wound. Results are interpreted by comparing the mean blood glucose values of six vehicle treated mice with six GK activator treated mice over the six hour study duration.

SMILES	glucokinase activator in vivo activity
CS(=O)(=O)c1ccc(C(CC2CCCC2)C(=O)Nc2nc3ccccc3[nH]2)cc1Cl (stereo not drawn) [Example 20, N-(1H-Benzoimidazol-2-yl)-2-(3-chloro-4-methanesulfonyl-phenyl)-3-cyclopentyl-propionamide]	excellent glucokinase activator in vivo activity
CS(=O)(=O)c1ccc([C@@H](CC2CCCC2)C(=O)Nc2nc3ccccc3s2)cc1Cl [Example 19, N-Benzothiazol-2-yl-2(R)-(3-chloro-4-methanesulfonyl-phenyl)-3-cyclopentyl-propionamide]	excellent glucokinase activator in vivo activity
CS(=O)(=O)c1ccc(C(CC2CCCC2)C(=O)Nc2ccc3ccccc3n2)cc1Cl (stereo not drawn) [Example 22, 2-(3-Chloro-4-methanesulfonyl-phenyl)-3-cyclopentyl-N-quinolin-2-yl-propionamide]	excellent glucokinase activator in vivo activity
